The test deals with T1, 7002 Rubisco (Picosynechococcus sp. PCC 7002, UniProt Q44176).
T1 construct: gene cbbL; C-terminal His6 tag on large subunit; large and small subunits co-expressed with chaperone RbcX from pET30a in E. coli BL21(DE3); hexadecamer; with Ribulose bisphosphate carboxylase small subunit
The experiment in a line: […]-CABP active-site binding assay. To be noted: labelled compound; active-site titration only.

T1 sequence (Q44176 whole entry): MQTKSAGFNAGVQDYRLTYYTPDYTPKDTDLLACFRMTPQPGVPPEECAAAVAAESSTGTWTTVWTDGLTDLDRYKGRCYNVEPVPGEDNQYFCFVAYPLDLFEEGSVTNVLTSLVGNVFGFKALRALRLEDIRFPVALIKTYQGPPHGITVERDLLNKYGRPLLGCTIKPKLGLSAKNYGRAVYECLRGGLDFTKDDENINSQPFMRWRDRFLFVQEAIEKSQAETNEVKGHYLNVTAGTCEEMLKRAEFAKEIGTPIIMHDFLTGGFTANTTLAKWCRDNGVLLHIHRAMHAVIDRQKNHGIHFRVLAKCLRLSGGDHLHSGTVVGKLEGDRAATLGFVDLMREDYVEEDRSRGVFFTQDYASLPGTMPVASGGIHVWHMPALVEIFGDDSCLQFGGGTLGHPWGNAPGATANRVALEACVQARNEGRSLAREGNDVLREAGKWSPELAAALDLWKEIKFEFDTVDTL
T1 sequence (Q44178 whole entry, further chain): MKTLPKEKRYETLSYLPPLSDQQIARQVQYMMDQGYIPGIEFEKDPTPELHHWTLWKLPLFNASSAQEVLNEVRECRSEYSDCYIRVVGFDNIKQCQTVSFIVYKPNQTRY

Take `O=C(O)[C@@](O)(COP(=O)(O)O)[C@H](O)[C@H](O)COP(=O)(O)O` [CABP, 2-carboxyarabinitol-1,5-diphosphate]: the “14C-CABP active-site binding assay” value is reported as “Active sites of Rubisco in purified enzymes were determined as reported”.

The record behind these values is article PMC10992382, “Discovery of a readily heterologously expressed Rubisco from the deep sea with potential for CO2 capture” (Bioresources and Bioprocessing, 2021).
